# Assay results taken from patent US20170209499A1, “Propolis and Extracts Thereof for the Treatment of Skin Cancers and Improvement of Skin Health” (Manuka Health New Zealand Limited, priority 2014, published 2017).
# Tested on: human melanoma cell line A-2058
# Assay: MTT cell proliferation assay, human melanoma cell line A-2058
# Type: cell-based
# Settings: for Mean OD: MTT Optical Density at 570 nm
# Description: This example describes the in vitro bioassay used for determining the anti-proliferative activity of test compounds and cyclodextrin-encapsulated propolis complexes against human skin cancer cell lines. The present example tests anti-proliferative efficacy against the human melanoma cell line, A-2058. The cyclodextrin-encapsulated propolis complexes tested are those described in Example 1. The NZ propolis was the same propolis used to manufacture the cyclodextrin complexes CD1-CD3. The Brazilian Green propolis was the same propolis used to manufacture the cyclodextrin complex CD4. The test samples were dissolved in 15% Ethanol (EtOH)/HBSS to make a working solution, which was then diluted 10 times to give a final concentration in the cells of 50 μg/ml unless indicated otherwise.
# The three human skin cancer cell lines were: • 1) Human Melanoma cell line (A-2058). • 2) Human Epidermoid (Squamous) Carcinoma cell line (A-431). • 3) Human Basal Cell Carcinoma cell line (TE 354.T).
# The cell lines were revived from cryostorage and cultured in the presence of the test and reference samples. An MIT assay was then performed on the cultures to determine the effect of the samples on the cell viability and proliferation. The percentage standard error of the mean was assessed and extreme outliers were removed if the SEM%>15. Preliminary statistical significance was assessed with an independent Student t-test at α<0.05 (with and without outliers). The methodology was based on the procedures reported by: • Ahn, N G, Campbell J S (1993). […] Proc Natl Acad Sci. 90: 5143-5147. • Galan-Cobo, A et al (2014). Functional inhibition of aquaporin-3 with a gold-based compound induces blockage of cell proliferation. J Cellul. Physiol. 229: 1787-1801. • Roomi, M W, Kalinovsky, J et al (2013) Effect of a nutrient mixture on matrix metalloproteinase-9 dimers in various human cancer cell lines. Inter 3 Oncol. 44: 936-942. • Huang, H C, Lin, M K et al (2013). Cardenolides and bufadienolide glycosides from Kalanchoe tubiflora and evaluation of cytotoxicity. Planta Medica. 79: 1362-1369. • Tilli, C M L J, Stavast-Kooy, A J W et al (2003). The garlic-derived organosulfur component ajoene decreases basal cell carcinoma tumor size by inducing apoptosis. Arch Dermatol Res. 295: 117-123.
# • 1. Human melanoma cell line (A-2058, ATCC CRL11147) was obtained from ATCC, Bethesda, Md., USA. • 2. Human squamous (epidermoid) carcinoma cell line (A-431, ATCC CRL1555) was obtained from ATCC, Bethesda, Md. USA. • 3. Human basal cell carcinoma cell line (TE 354.T, ATCC CRL7762) was obtained from ATCC, Bethesda, Md., USA. • 4. Dulbecco's Modified Eagle's Medium (DMEM) was obtained from GIBCO (12100-038). 10% Foetal Bovine Serum (FBS), 100 U/ml Penicillin and […] Streptomycin were added before use. • 5. Penicillin-streptomycin solution, stored at −20° C. consisting of 10000 units/ml penicillin and 10 mg/ml streptomycin in 0.9% NaCl was obtained from Sigma (#P-0781). • 6. Trypsin-EDTA solution consisting of 0.25% Trypsin/EDTA was obtained from Invitrogen (#15400054). • 7. Phosphate buffered saline (PBS) was prepared in-house. • 8. Hanks Balanced Salt Solution (HBSS), stored at 4° C. was obtained from GIBCO (#14185-052). • 9. Foetal Bovine Serum (FBS) stored at −20° C. was obtained from GIBCO (#10091-148). • 10. MTT Reagent, 100 mg/vial, was obtained from Sigma (M-2128) and then dissolved in PBS at 10 mg/ml and stored at −20° C. A 5 mg/ml MTT solution was prepared in PBS and stored at 4° C. as the working solution. • 11. MU lysis buffer: 10% sodium dodecyl sulphate (SDS)/45% Dimethyl Formamide was prepared by dissolving 20 g SDS in 100 ml of double-distilled water (DDW), and then adding 90 ml of Dimethyl Formamide to the solution. The pH was adjusted to 4.7 by glacial acetic acid, and DDW added up to a final volume of 200 ml. • 12. 5-Fluorouracil (5-FU) was supplied by Sigma (F-6627). Three working solutions were prepared at 19.5 μg/ml. 6.5 μg/ml and 1.95 μg/ml dissolved in 15% Ethanol/HBSS. […]
smiles,measurement,setting,value
"O=c1[nH]cc(F)c(=O)[nH]1 [5-fluorouracil, reference compound]",Mean OD,"A-2058, 0.195 μg/ml",0.1937
same,Mean OD,"A-2058, 0.65 μg/ml",0.1832
same,Mean OD,"A-2058, 1.95 μg/ml",0.1847
same,inhibition at 0.195 µg/mL,"Homo sapiens, A2058, 24 h, A-2058, final conc. 0.195 μg/ml, 24 hr incubation, vs cells only",3.73%
same,inhibition at 0.65 µg/mL,"Homo sapiens, A2058, 24 h, A-2058, final conc. 0.65 μg/ml, 24 hr incubation, vs cells only",8.99%
same,inhibition at 1.95 µg/mL,"Homo sapiens, A2058, 24 h, A-2058, final conc. 1.95 μg/ml, 24 hr incubation, vs cells only",8.25%
